Molecules are shown by their SMILES.

In one experiment the test system is Cu(II)-Aβ. The experiment can be described thus: Aβ aggregation inhibition, gel electrophoresis and Western blotting with anti-Aβ antibody (6E10). In kind it is biochemical. From the text:
It was examined whether the benzene diamine derivatives of the present disclosure have inhibitory effects on Aβ aggregation. Aβ has two isoforms, and therefore, effects on Aβ40 and Aβ42 were examined, respectively. When metals are involved in protein folding, the probability of abnormal folding is high. In this case, the probability of Aβ aggregate formation is further increased.
In order to perform molecular analysis of Aβ aggregation-inhibitory effects of the benzene diamine derivatives of the present disclosure, gel electrophoresis and Western blotting were performed by using anti-Aβ antibody (6E10). As a control group, compound 1
In detail, each sample (10 μl) was separated on a 10-20% Tris-tricine gel (Invitrogen, Grand Island, N.Y., USA). After separation, the proteins were transferred onto a nitrocellulose membrane and blocked with bovine serum albumin (BSA, 3% w/v, Sigma-Aldrich, St Louis, Mo., USA) in Tris-buffered saline (TBS) containing 0.1% Tween-20 (TBS-T) at room temperature for 2 hours or at 4° C. overnight. The membrane was incubated in a 2% BSA (w/v in TBS-T) solution, together with anti-Aβ antibody (6E10, 1:2,000, Covance, Princeton, N.J., USA), at room temperature for 4 hours or at 4° C. overnight. The membrane was washed with TBS-T (3×, 10 min), and a secondary mouse antibody (1:5,000 in 2% BSA w/v in TBS-T; Cayman Chemical Company, Ann Arbor, Mich., USA) was added thereto, followed by incubation at room temperature for 1 hour. Thermo Scientific SuperSignal West Pico Chemiluminescent Substrate (Thermo Scientific, Rockford, Ill., USA), Biosesang ECL Plus kit (Biosesang, Gyeonggi-do, Republic of Korea), or homemade ECL kit53 were used for visualization, and ChemiDoc MP Imaging System (Bio-Rad, Hercules, Calif., USA) was used for detection.

Experiment [1] can be described thus: Antioxidant effect: free organic radical-scavenging activity (ABTS) using cell lysate. To be noted: Table 1 summary of Example 3; symbols not defined. In kind it is biochemical. Here is the method:
It was examined whether the benzene diamine derivatives of the present disclosure have an antioxidant effect. It is known that reactive oxygen species induces oxidative stress in neuronal cells to cause neuronal cell death and causes protein misfolding to induce formation of Aβ aggregates. Therefore, compounds having antioxidant effects may be candidates for preventing or treating dementia.
Free organic radical-scavenging activity of the compound was determined according to a protocol of Cayman Chemical Company (Ann Arbor, Mich., USA) with slight modifications. For antioxidant analysis using a cell lysate, cells were seeded in a 6-well plate, and cultured until they reached 80-90% confluence. A cell lysate was prepared according to a known method, washed with a cold phosphate buffer solution (PBS; pH 7.4, GIBCO), and then harvested. Cell pellet was produced by centrifugation (2,000 g, 4° C., 10 min). This pellet was sonicated (5 sec pulse, 20 sec interval, three times) in 2 ml of cold assay buffer S13 (5 mM potassium phosphate, pH 7.4; 0.9% NaCl; 0.1% glucose) on ice. A cell lysate was centrifuged at 4° C. for 10 minutes at 5,000 g. A supernatant was removed, and left on ice until use. To the cell lysate supernatant (10 μl), the compound, metmyoglobin, ABTS (2,2′-azino-bis-3-ethylbenzothiazoline-6-sulfonic acid), and hydrogen peroxide were sequentially added. The mixture was incubated on a shaker at room temperature for 5 minutes, and absorbance at 750 nm was measured. The compound at a final concentration of 45, 90, 135, 180, 225, or 330 μM and Trolox (6-hydroxy-2,5,7,8-tetramethyl-chroman-2-carboxylic acid, dissolved in EtOH) were used. Antioxidant activity was calculated according to the measured absorbance [% inhibition=100×(A0−A)/A0, A0 represents absorbance of the supernant of the cell lysate]. Each measurement was repeated in triplicate.

In experiment [2] the test system is APP/PS/Tau dementia mouse model. The experiment can be described thus: Morris water maze test, memory capacity of dementia mouse model. In kind it is in vivo. To be noted: oral 100 μg/kg twice a week for 2 months. The procedure: In order to investigate enhancement of spatial cognition and memory in dementia mouse models by the benzene diamine derivatives of the present disclosure, a Morris water maze (Harvard Apparatus, USA) test was performed.
In detail, a water maze composed of a stainless steel pool with a diameter of 150 cm×a height of 60 cm and an escape platform (10 cm in diameter, 30 cm in height) was filled with water at 22±2° C., and the height was 2 cm above the platform such that when a mouse sat on the escape platform, the body was allowed to come out of the water. […] Escape latency was measured as the time taken for the experimental animal to go to the escape platform when the experimental animal went to the escape platform and stayed thereon for more than 20 seconds. This test was performed three times a day, and a mean value was determined as mean escape latency. The escape latency was recorded on the computer program (Smart Video Tracking System V3.0, PanLab SL, Barcelona, Spain) by installing a camera on the ceiling above the water tank. The experiment was performed three times a day for 6 days, and at this time, the possibility of accidentally visiting the escape platform was minimized by sequentially changing the positions of the experimental animals in the water tank. In the experiment, a normal mouse, a control dementia mouse administered with a vehicle (PBS) and an experimental dementia mouse administered with 100 μg/kg of N^1-(pyridin-2-ylmethypenzene-1,4-diamine (Compound 2) twice a week for 2 months were used after completing administration, as in Experimental Example 1.

In another experiment the target is T1, oligomeric Aβ42 (Homo sapiens, UniProt P05067).
T1 construct: from tissue; host or cells: brain of dementia mouse models
T1 sequence (P05067 672-713 limits assumed): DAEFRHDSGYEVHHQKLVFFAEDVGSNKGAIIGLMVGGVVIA
The experiment can be described thus: Brain tissue immunohistofluorescence, oligomeric Aβ. In kind it is in vivo, mouse. The following applies: oral 100 μg/kg twice a week for 2 months, confocal, FIG. 8. Here is the method:
Oligomeric Aβ formation in the brain tissue may cause neuronal cell death by neuronal cytotoxicity, which may cause dementia. Therefore, anatomical analysis of the brain tissue was performed to examine whether the benzene diamine derivatives of the present disclosure inhibit neuronal cytotoxicity by oligomeric Aβ in dementia mouse models.
In detail, as in Experimental Example 7-1, the dementia mouse models were prepared and their brain tissues were stained. Anti-oligomeric Aβ primary antibody (ab126892, Abcam, Eugene, USA) labeled with QD525 probe (red fluorescence) was used to examine changes in the quantity of oligomeric Aβ42. Further, to measure changes of plaques, the tissues were stained with a fluorescent staining reagent MX04 (blue) and incubated at 4° C. for 12 hours. Thereafter, the tissues were observed under a confocal microscope at 0.5×10.

Turning to `Nc1ccc(NCc2ccccn2)cc1` [Compound 2, N^1-(pyridin-2-ylmethyl)benzene-1,4-diamine], the “Cu(II)-Aβ (inhibitory effect on Aβ aggregation)” value with Cu(II)-Aβ (Table 1 summary of Example 2, symbols not defined) was “◯”. Moreover, in the experiment on Cu(II)-Aβ (two kinds of Aβ, FIG. 1), the “Cu(II)-Aβ-inhibitory effect” value is “very excellent Cu(II)-Aβ-inhibitory effect on two kinds of Aβ”. Further, the “Reactive oxygen species (antioxidant effect)” value in experiment [1] is reported as “◯ (better effect than TEAC)”. Moreover, in experiment [2] (AD mice), the “difference in mean escape latency vs control group at 4 days” value amounted to 16 s, the “difference in mean escape latency vs dementia group at 5 days” value stood at 19 s, the “mean escape latency at 4 days” value was 26 ± 1 s and the “mean escape latency at 5 days” value is 24 ± 1 s. Also, the “mean escape latency at 3 days (worded)” value in experiment [2] (vs dementia control group, FIG. 5) is listed as “significantly short mean escape latency”. The “oligomeric Aβ in brain” value at oligomeric Aβ42 is recorded as “oligomeric Aβ was hardly observed”.

Source of the values: patent publication US10464901B2, “Composition including benzene diamine derivative for preventing or treating degenerative brain diseases” (UNIST(ULSAN NATIONAL INSTITUTE OF SCIENCE AND TECHNOLOGY), priority 2017, dated 2019).
